B1: daclizumab (antibody, chains of the INN, looked up, V domains shown)
VH: QVQLVQSGAEVKKPGSSVKVSCKASGYTFTSYRMHWVRQAPGQGLEWIGYINPSTGYTEYNQKFKDKATITADESTNTAYMELSSLRSEDTAVYYCARGGGVFDYWGQGTLVTVSS
VL: DIQMTQSPSTLSASVGDRVTITCSASSSISYMHWYQQKPGKAPKLLIYTTSNLASGVPARFSGSGSGTEFTLTISSLQPDDFATYYCHQRSTYPLTFGQGTKVEVK

Key:
[1] = system: Foxp3+, CD25+, CD4+ T-regulatory cells; experiment: T-regulatory recovery after depletion and treatment with TLR-ligands; conditions: for effect on thymopoeisis (suggested by day 10 spike in percent thymic T-reg): after T-regulatory depletion; for induction of T-regulatory recovery in the thymus and spleen: conclusion
[2] = system: T regulatory phenotype cells; design: species or system non-human primate; conditions: in vivo

Molecule | effect on thymopoeisis (suggested by day 10 spike in percent thymic T-reg) [1] | induction of T-regulatory recovery in the thymus and spleen [1] | T-regulatory recovery in the thymus ([1]; day 10, summary) | percent Foxp3+, CD25+, CD4+ splenocytes versus untreated mice ([1]; day 17, T-reg depleted mice) | T-regulatory recovery in the spleen ([1]; day 17, summary) | percent Foxp3+, CD25+, CD4+ splenocytes versus untreated mice ([1]; day 10, T-reg depleted mice) | T-regulatory recovery in the spleen ([1]; day 10, summary) | T-reg recovery in the thymus ([1]; day 17, summary) | time of maximum depletion of % and number of T regulatory phenotype cells [2] [weeks] | time until which depletion lasted [2] [weeks]
C=CCn1c(=O)n([C@@H]2O[C@H](CO)[C@@H](O)[C@H]2O)c2nc(N)[nH]c(=O)c21 [TLR-7 ligand, loxoribine] | have an effect on thymopoeisis | able to induce T-regulatory recovery | accelerated | significantly increased levels | accelerated |  |  |  |  | 
Poly (I:C) [TLR-3 ligand] | have an effect on thymopoeisis | able to induce T-regulatory recovery |  | significantly increased levels | accelerated | significantly higher levels | accelerated | greater |  | 
flagellin [TLR-5 ligand] | no effect |  |  |  |  |  |  |  |  | 
B1 |  |  |  |  |  |  |  |  | 2 | 4

From patent US20060165687A1, “Vaccine adjuvant” (DUKE UNIVERSITY, priority 2004, published 2006)
